Assay [1] has as its target T1, Histamine H1 receptor (Homo sapiens, UniProt P35367). The experiment in a line: Agonist activity at human H1 receptor expressed in insect Sf9 cells co-expressing RGS4 assessed as gamma[32P]GTP binding by liquid scintillation counting.
Assay [2] concerns the target T2, Histamine H4 receptor (Homo sapiens, UniProt Q9H3N8). The experiment in a line: Intrinsic activity at human H4 receptor expressed in insect Sf9 cells co-expressing RGS19 fusion protein and Gialpha2, Gbeta1gamma2 assessed as gamma[32P]GTP binding at 10 uM by liquid scintillation counting relative to histamine.
The target of assay [3] is T3, Histamine H2 receptor (Homo sapiens, UniProt P25021). Description: Agonist activity at human H2 receptor expressed in insect Sf9 cells co-expressing GsalphaS fusion protein assessed as gamma[32P]GTP binding by liquid scintillation counting.
T3 sequence (P25021 whole entry, the tested form may be a part): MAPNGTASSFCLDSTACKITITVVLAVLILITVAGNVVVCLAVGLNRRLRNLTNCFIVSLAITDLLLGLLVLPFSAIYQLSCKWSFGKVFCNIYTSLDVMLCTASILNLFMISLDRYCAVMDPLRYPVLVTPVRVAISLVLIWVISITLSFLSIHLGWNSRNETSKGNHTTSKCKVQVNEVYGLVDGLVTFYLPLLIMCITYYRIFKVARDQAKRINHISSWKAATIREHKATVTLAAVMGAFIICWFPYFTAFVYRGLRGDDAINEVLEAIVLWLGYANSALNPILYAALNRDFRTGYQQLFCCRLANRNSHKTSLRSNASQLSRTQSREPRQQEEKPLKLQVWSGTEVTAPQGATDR
Assay [4] has as its target T2, Histamine H4 receptor. Description: Agonist activity at human H4 receptor expressed in insect Sf9 cells co-expressing RGS19 fusion protein and Gialpha2, Gbeta1gamma2 assessed as gamma[32P]GTP binding by liquid scintillation counting.
For assay [5], the target named is T1, Histamine H1 receptor. Description: Intrinsic activity at human H1 receptor expressed in insect Sf9 cells co-expressing RGS4 assessed as gamma[32P]GTP binding at 10 uM by liquid scintillation counting relative to histamine.
In assay [6] the target is T4, Histamine H3 receptor (Homo sapiens, UniProt Q9Y5N1). Description: Agonist activity at human H3 receptor expressed in insect Sf9 cells co-expressing Gialpha2, Gbeta1gamma2 and RGS4 assessed as gamma[32P]GTP binding by liquid scintillation counting.
T4 sequence (Q9Y5N1 whole entry): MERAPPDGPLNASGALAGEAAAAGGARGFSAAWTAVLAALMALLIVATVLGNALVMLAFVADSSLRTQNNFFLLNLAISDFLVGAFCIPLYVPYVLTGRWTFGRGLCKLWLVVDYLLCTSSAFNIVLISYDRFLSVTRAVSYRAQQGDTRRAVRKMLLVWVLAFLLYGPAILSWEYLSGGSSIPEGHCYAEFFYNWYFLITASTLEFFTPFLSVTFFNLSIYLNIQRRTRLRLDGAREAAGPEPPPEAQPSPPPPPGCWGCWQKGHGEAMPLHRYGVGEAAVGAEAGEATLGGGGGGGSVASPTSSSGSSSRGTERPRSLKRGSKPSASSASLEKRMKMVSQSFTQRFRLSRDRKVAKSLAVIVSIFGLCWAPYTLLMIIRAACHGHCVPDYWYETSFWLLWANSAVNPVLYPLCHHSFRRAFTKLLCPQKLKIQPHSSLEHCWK
Assay [7] deals with T5, Histamine H2 receptor (Cavia porcellus, UniProt P47747). Description: Antagonist activity at histamine H2 receptor in guinea pig right atrium assessed as inhibition of histamine-induced increase in heart rate. Type of assay: functional, tissue-based, Cardiac atrium. The note with it: read-out: pA2 (converted).
T5 sequence (P47747 whole entry): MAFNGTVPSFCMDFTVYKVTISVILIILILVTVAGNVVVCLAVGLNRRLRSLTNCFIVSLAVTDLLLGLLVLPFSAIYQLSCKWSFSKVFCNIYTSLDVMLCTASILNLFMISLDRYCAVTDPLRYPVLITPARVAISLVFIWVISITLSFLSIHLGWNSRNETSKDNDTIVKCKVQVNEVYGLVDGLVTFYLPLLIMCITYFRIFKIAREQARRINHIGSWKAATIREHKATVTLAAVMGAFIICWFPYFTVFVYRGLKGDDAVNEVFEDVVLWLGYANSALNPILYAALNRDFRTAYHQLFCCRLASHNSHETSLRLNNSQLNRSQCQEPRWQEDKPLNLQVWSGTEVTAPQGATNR
For assay [8], the target named is T4, Histamine H3 receptor. The experiment in a line: Intrinsic activity at human H3 receptor expressed in insect Sf9 cells co-expressing Gialpha2, Gbeta1gamma2 and RGS4 assessed as gamma[32P]GTP binding at 10 uM by liquid scintillation counting relative to histamine.
Assay [9] has as its target T3, Histamine H2 receptor. Description: Intrinsic activity at human H2 receptor expressed in insect Sf9 cells co-expressing GsalphaS fusion protein assessed as gamma[32P]GTP binding at 10 uM by liquid scintillation counting relative to histamine.
Assay [10] deals with T5, Histamine H2 receptor. Description: Agonist activity at histamine H2 receptor in guinea pig atrium assessed as increase in heart rate. Format: functional, tissue-based, Cardiac atrium.
Assay [11] deals with Histamine H2 receptor (Cavia porcellus) (UniProt P47747). The experiment in a line: Agonist activity at histamine H2 receptor in guinea pig atrium assessed as maximal increase in heart rate relative to histamine. The following applies: Cardiac atrium. Type of assay: functional, tissue-based.
Sequence of Histamine H2 receptor (Cavia porcellus) (P47747 whole entry): as above
The target in assay [12] is Histamine H1 receptor (Cavia porcellus, UniProt P31389). Description: Antagonist activity at histamine H1 receptor in guinea pig ileum assessed as inhibition of histamine-induced contractions. Type of assay: functional, tissue-based. The following applies: read-out: pA2 (converted).
Sequence of Histamine H1 receptor (Cavia porcellus, UniProt P31389) (P31389 whole entry): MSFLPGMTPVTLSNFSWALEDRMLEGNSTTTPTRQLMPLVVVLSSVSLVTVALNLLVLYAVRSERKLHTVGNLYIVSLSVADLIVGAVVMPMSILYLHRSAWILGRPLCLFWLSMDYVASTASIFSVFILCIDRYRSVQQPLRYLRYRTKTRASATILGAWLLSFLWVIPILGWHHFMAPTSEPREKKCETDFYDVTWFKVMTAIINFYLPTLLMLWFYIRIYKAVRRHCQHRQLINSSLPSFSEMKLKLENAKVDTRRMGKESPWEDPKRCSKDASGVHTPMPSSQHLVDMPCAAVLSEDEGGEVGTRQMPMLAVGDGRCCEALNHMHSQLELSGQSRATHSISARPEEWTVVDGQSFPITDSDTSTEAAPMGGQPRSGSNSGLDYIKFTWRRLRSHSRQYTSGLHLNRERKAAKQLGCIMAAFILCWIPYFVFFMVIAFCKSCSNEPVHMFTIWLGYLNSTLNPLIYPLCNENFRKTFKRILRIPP
The target of assay [13] is T1, Histamine H1 receptor. The experiment in a line: Antagonist activity at human H1 receptor expressed in insect Sf9 cells co-expressing RGS4 assessed as inhibition of histamine-induced gamma[32P]GTP binding by liquid scintillation counting.
Assay [14] concerns the target T4, Histamine H3 receptor. The experiment in a line: Antagonist activity at human H3 receptor expressed in insect Sf9 cells co-expressing Gialpha2, Gbeta1gamma2 and RGS4 assessed as inhibition of histamine-induced gamma[32P]GTP binding by liquid scintillation counting.
Assay [15] addresses T2, Histamine H4 receptor. Description: Antagonist activity at human H4 receptor expressed in insect Sf9 cells co-expressing RGS19 fusion protein and Gialpha2, Gbeta1gamma2 assessed as inhibition of histamine-induced gamma[32P]GTP binding by liquid scintillation counting.
For assay [16], the species on record is Homo sapiens. The experiment in a line: Selectivity ratio of EC50 for human H2R to EC50 for human H4R.
For assay [17], the species on record is Homo sapiens. Description: Selectivity ratio of EC50 for human H1R to EC50 for human H4R.

Each structure is given as a SMILES string.

T1 sequence (P35367 whole entry, the tested form may be a part): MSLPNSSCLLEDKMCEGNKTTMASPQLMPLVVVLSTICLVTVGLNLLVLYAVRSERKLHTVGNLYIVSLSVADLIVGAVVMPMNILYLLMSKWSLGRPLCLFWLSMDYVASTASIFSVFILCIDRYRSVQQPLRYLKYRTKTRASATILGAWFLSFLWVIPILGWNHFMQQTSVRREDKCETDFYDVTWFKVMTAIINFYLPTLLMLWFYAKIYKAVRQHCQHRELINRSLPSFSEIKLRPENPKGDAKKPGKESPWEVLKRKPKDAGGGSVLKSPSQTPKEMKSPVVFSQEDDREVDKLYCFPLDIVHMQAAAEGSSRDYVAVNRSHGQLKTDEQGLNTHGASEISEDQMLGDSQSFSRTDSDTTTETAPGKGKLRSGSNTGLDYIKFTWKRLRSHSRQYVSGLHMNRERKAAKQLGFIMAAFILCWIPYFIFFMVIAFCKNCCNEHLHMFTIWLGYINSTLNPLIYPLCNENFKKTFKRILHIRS
T2 sequence (Q9H3N8 whole entry, the tested form may be a part): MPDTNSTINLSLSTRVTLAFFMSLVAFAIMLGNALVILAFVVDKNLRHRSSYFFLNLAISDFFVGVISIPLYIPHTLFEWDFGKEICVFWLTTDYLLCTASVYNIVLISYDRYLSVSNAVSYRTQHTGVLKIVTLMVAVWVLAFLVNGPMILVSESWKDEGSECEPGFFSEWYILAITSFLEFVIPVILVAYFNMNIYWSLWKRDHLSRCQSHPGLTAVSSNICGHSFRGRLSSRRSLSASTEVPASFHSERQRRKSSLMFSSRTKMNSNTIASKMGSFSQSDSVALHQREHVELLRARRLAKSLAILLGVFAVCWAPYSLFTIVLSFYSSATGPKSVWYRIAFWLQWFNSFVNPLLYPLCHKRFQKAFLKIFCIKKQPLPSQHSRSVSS

In general, EC50 refers to the concentration giving half of the maximal effect. Take `CC(C)C(=O)/N=C(\N)NCCCc1c[nH]cn1`: the half-maximal effective concentration (EC50) is 2570 nM on Histamine H1 receptor [1]; 110 nM on Histamine H2 receptor [3]; 3.72 nM at Histamine H4 receptor [4]; 1.41 nM on Histamine H3 receptor [6]; 110 nM at Histamine H2 receptor [10]. For the same compound, the Activity on Histamine H4 receptor [2] was 0.94; on Histamine H1 receptor [5], 0.35; on Histamine H3 receptor [8], 0.26; at Histamine H2 receptor [9] it was 0.86; in assay [11], 0.98. Moreover, the results for the Kb at Histamine H2 receptor [7] and at Histamine H1 receptor [12] were 302 nM and 7760 nM, respectively.

Usually pKb stands for the negative decadic logarithm of the Kb, by convention in mol/L. Turning to `N=C(N)NCCCc1c[nH]cn1`, the pKb at Histamine H1 receptor [13] is less than 5. Moreover, the Activity at Histamine H4 receptor [2] was found to be 0.83; on Histamine H3 receptor [8], 0.69; at Histamine H2 receptor [9], 0.66.

In the case of `CN(CCC(=O)/N=C(\N)NCCCc1c[nH]cn1)C(=O)c1cc2ccccc2[nH]1`, the Activity on Histamine H4 receptor [2] was found to be 0.52; at Histamine H3 receptor [8], 0.3; at Histamine H2 receptor [9], 0.68; in [11], 0.84. Moreover, the EC50 at Histamine H2 receptor [3] was 347 nM; at Histamine H4 receptor [4], 151 nM; on Histamine H3 receptor [6], 11 nM; at Histamine H2 receptor [10], 3550 nM. Also, the Kb on Histamine H1 receptor [12] is 3020 nM.

Turning to `N/C(=N\C(=O)CNC(=O)c1cc2ccccc2[nH]1)NCCCc1c[nH]cn1`, the values for the Activity on Histamine H4 receptor [2], at Histamine H3 receptor [8] and on Histamine H2 receptor [9] were 0.71, 0.45 and 0.51, respectively. Also, the values for the EC50 on Histamine H2 receptor [3], on Histamine H4 receptor [4] and on Histamine H3 receptor [6] were 955 nM, 28.2 nM and 15.8 nM, respectively.

In the case of `N/C(=N\C(=O)CCCNC(=O)c1cc2ccccc2[nH]1)NCCCc1c[nH]cn1`, the pKb at Histamine H1 receptor [13] was determined as 4.96; on Histamine H3 receptor [14], 7.17; at Histamine H4 receptor [15] it was 7.02. The Activity on Histamine H4 receptor [2] is -0.06; at Histamine H1 receptor [5], 0.16; at Histamine H3 receptor [8], -0.18; at Histamine H2 receptor [9] it was 0.51; in assay [11] it was 0.9. For the same compound, the half-maximal effective concentration (EC50) at Histamine H2 receptor [3] is 30.2 nM; at Histamine H2 receptor [10] it was 490 nM. Also, the Kb at Histamine H1 receptor [12] is 741 nM.

In the case of `N/C(=N\C(=O)c1cc2ccccc2[nH]1)NCCCc1c[nH]cn1`, the figures for the EC50 on Histamine H1 receptor [1] and on Histamine H2 receptor [3] were 1700 nM and 288 nM, respectively. For the same compound, the pKb at Histamine H3 receptor [14] turned out to be 6.96; at Histamine H4 receptor [15], 6.43. Besides, the Activity is 0.21 at Histamine H4 receptor [2], 0.42 on Histamine H1 receptor [5], -0.38 at Histamine H3 receptor [8] and 0.87 on Histamine H2 receptor [9].

As to `CC(=O)NC(N)=NCCCc1cnc[nH]1`, the EC50 at Histamine H1 receptor [1] is 12900 nM; on Histamine H2 receptor [3], 724 nM; at Histamine H4 receptor [4] it was 4.9 nM; on Histamine H3 receptor [6], 3.63 nM; at Histamine H2 receptor [10] it was 813 nM. Besides, the Kb was 363 nM on Histamine H2 receptor [7] and 8510 nM on Histamine H1 receptor [12].

`CC(CC(=O)/N=C(\N)NCCCc1c[nH]cn1)c1ccccc1` (stereo not drawn): the pKb on Histamine H1 receptor [13] is less than 4.9. For the same compound, the Activity at Histamine H4 receptor [2] was found to be 0.84; on Histamine H1 receptor [5], 0.35; at Histamine H3 receptor [8], 0.24; on Histamine H2 receptor [9], 0.87; in [11] it was 0.99.

As for `CC(=O)/N=C(\N)NCCCc1c[nH]cn1`, the Activity at Histamine H4 receptor [2] stood at 1; on Histamine H1 receptor [5] it was 0.24; at Histamine H3 receptor [8], 0.27; at Histamine H2 receptor [9], 0.76; in assay [11] it was 0.83. For the same compound, the Selectivity ratio in the assay filed under Homo sapiens [16] is greater than 100; in the assay filed under Homo sapiens [17], greater than 1000.

Consider `N/C(=N\C(=O)CCNC(=O)c1cc2ccccc2[nH]1)NCCCc1c[nH]cn1`, for which the pKb on Histamine H3 receptor [14] turned out to be 7.17. In addition, the figures for the Activity on Histamine H4 receptor [2], on Histamine H3 receptor [8] and on Histamine H2 receptor [9] were 0.37, 0.1 and 0.33, respectively. The EC50 at Histamine H2 receptor [3] is 83.2 nM; at Histamine H4 receptor [4] it was 33.1 nM.

Turning to `N/C(=N\C(=O)Cc1c[nH]c2ccccc12)NCCCc1c[nH]cn1`, the pKb was 5.68 on Histamine H1 receptor [13] and 7.51 on Histamine H3 receptor [14]. The Activity was 0.7 at Histamine H4 receptor [2]; 0 on Histamine H1 receptor [5]; -0.15 at Histamine H3 receptor [8]; 0.81 on Histamine H2 receptor [9]; 0.91 in [11]. Besides, the EC50 was 36.3 nM at Histamine H2 receptor [3], 19.1 nM on Histamine H4 receptor [4] and 182 nM at Histamine H2 receptor [10]. Further, at Histamine H1 receptor [12], the Kb was 38.9 nM.

For the compound `CCCC(=O)/N=C(\N)NCCCc1c[nH]cn1`, the EC50 on Histamine H1 receptor [1] is 2190 nM; on Histamine H2 receptor [3] it was 141 nM; at Histamine H4 receptor [4] it was 2.57 nM; on Histamine H3 receptor [6], 1.58 nM; on Histamine H2 receptor [10], 186 nM. The Activity at Histamine H4 receptor [2] amounted to 0.96; on Histamine H1 receptor [5], 0.33; on Histamine H3 receptor [8] it was 0.37; at Histamine H2 receptor [9], 0.77; in assay [11], 0.97. The figures for the Kb on Histamine H2 receptor [7] and on Histamine H1 receptor [12] were 407 nM and 3550 nM, respectively.

On to `CC(CC(=O)NC(N)=NCCCc1cnc[nH]1)c1ccccc1` (stereo not drawn), for which the EC50 on Histamine H3 receptor [6] was 2.51 nM.

With `CCC(=O)/N=C(\N)NCCCc1c[nH]cn1`, the EC50 on Histamine H1 receptor [1] was 3470 nM; on Histamine H2 receptor [3], 372 nM; on Histamine H3 receptor [6] it was 1.58 nM. In addition, the Activity at Histamine H1 receptor [5] came out at 0.3; on Histamine H3 receptor [8] it was 0.39; at Histamine H2 receptor [9] it was 0.83; in assay [11] it was 0.94. Further, the Kb on Histamine H2 receptor [7] was 347 nM; at Histamine H1 receptor [12] it was 5130 nM.

Take `N/C(=N\C(=O)CCc1c[nH]c2ccccc12)NCCCc1c[nH]cn1`: the pKb on Histamine H1 receptor [13] is 5.4; at Histamine H3 receptor [14] it was 7.57. Besides, the Activity was 0.45 on Histamine H4 receptor [2]; 0.09 on Histamine H1 receptor [5]; -0.18 at Histamine H3 receptor [8]; 0.77 at Histamine H2 receptor [9]; 1.01 in [11]. The EC50 at Histamine H2 receptor [3] is 81.3 nM; at Histamine H4 receptor [4], 7.08 nM; at Histamine H2 receptor [10], 77.6 nM. Further, the values for the Kb at Histamine H2 receptor [7] and at Histamine H1 receptor [12] were 437 nM and 398 nM, respectively.

On to `S=C(NC1CCCCC1)N1CCC(c2cnc[nH]2)CC1`, for which the Activity at Histamine H4 receptor [2] was -0.95; at Histamine H3 receptor [8] it was -0.71.

Values taken from ChEMBL document CHEMBL1153419 (J Med Chem, 2009).
